Values of other authors as cited in patent US20250268950A1, “PRENATAL SUPPLEMENT” (Arizona Board of Regents on Behalf of Arizona State …, priority 2021, published 2025).
Like-named read-outs stand apart in the source and are kept apart here.

Legend:
[1] = tested on: pregnant women; conditions: for decrease in anxiety symptoms / decrease in depression: RCT, 1 mg/day
[2] = tested on: infants
[3] = for plasma level as % of level at 2500 mg: non-pregnant women
[4] = tested on: non-pregnant women with polycystic ovary syndrome; diabetes
[5] = tested on: pregnant women and their infants; conditions: maternal blood levels in the highest quartile; 397 ASD, 1034 controls
[6] = tested on: pregnant women and their infants; conditions: prenatal with vitamin E and dietary intake in upper half (12.6-33.8 mg/day)
[7] = Cochrane, ≥1 g/day, 13 studies, 15,730 women
[8] = meta-analysis of 27 trials, 28,492 women
[9] = meta-analysis of seven RCTs, women with gestational diabetes
[10] = diabetes, meta-analysis of 22 randomized controlled trials
[11] = meta-analysis of 7 studies, 5-10 mg, usually repeated, imminent very preterm birth
[12] = one or more maternal doses of 10 mg

Compound: [Ca] [Calcium]
- incidence of pregnancy-induced hypertension ([1]; 120 mg (18% in control group)): 8.9%
- incidence of pregnancy-induced hypertension ([1]; 240 mg (18% in control group)): 7.5%
- incidence of pregnancy-induced hypertension ([1]; 1000 mg (18% in control group)): 8%
- incidence of pregnancy-induced hypertension ([1]; 2000 mg (18% in control group)): 4%
- cases of HELLP ([1]; 1500-2000 mg/day, two trials, 12,901 women (vs. 6 un-supplemented)): 16
- risk of preeclampsia, RR ([1]; Cochrane, low-dose <1 g/day, 10 trials, 2234 women): 0.38
- maternal death or serious morbidity, RR ([1]; Cochrane, ≥1 g/day): 0.80
- risk of high blood pressure, RR [1, 7]: 0.65
- risk of preeclampsia, RR [1, 7]: 0.45
- rate of proteinuric PIH ([1]; Hong Kong, 600 mg weeks 22-32, 1200 mg/day to birth (vs. 10.7% placebo)): 5.6%
- rate of non-proteinuric PIH ([1]; Hong Kong, 600 mg weeks 22-32, 1200 mg/day to birth (vs. 24% placebo)): 15%
- reducing risk of preeclampsia, PIH, and hypertension ([1]; Trinidad, 510 women, 1200 mg): much more effective than 600 mg of calcium plus aspirin
- gestational hypertension, RR [1, 8]: 0.70
- risk of preeclampsia, RR [1, 8]: 0.51
- preterm birth, RR ([2]; Cochrane, ≥1 g/day): 0.76
- risk of ASD, OR ([2]; retrospective study in China): 0.48

Compound: [Cu] [Copper]
- Tolerable Upper Limit for Pregnant Women (Table 18): 10 mg
- decrease in anxiety symptoms ([1]; second trimester): 45%
- decrease in depression ([1]; second trimester): 75%
- decrease in anxiety symptoms ([1]; third trimester): 80%
- decrease in depression ([1]; third trimester): 90%
- copper levels ([3]; 2 mg as part of a multi-vitamin/mineral supplement, France): no difference in copper levels between treatment and placebo groups

Compound: C[N+](C)(C)CCO [Choline]
- Tolerable Upper Limit for Pregnant Women (Table 12): 3500 mg/day
- safety ([1]; 900 mg/day of choline (as phosphatidylcholine)): safe

Compound: CC(O)C(=O)[O-].CC(O)C(=O)[O-].[Zn+2] (stereo not drawn) [zinc lactate]
- low birth weight, preterm birth, intrauterine growth retardation ([2]; 30 mg/day): great improvements in the incidence of low birth weight, preterm birth, and intrauterine growth retardation
- benefit ([2]; doses of 5 and 10 mg): no benefit
- serum zinc ([3]; 30 mg): enough to slightly increase zinc levels

Compound: CC1=C(/C=C/C(C)=C/C=C/C(C)=C/CO)C(C)(C)CCC1 [Vitamin A, retinol]
- Tolerable Upper Limit for Pregnant Women (Table 12): 3 mg
- reduction of night blindness during pregnancy ([1]; Nepal, 7000 mcg/week): 67%
- risk of anemia, RR ([1]; meta-analysis of 8 studies, supplementation): 0.81
- vitamin A levels lower than healthy non-pregnant controls ([3]; 5000 IU/day (50% as beta carotene), first, second, third trimesters): 27%

Compound: omega-3 fatty acids
- risk of preeclampsia, RR ([1]; meta-analysis of 14 supplementation studies): 0.82
- preeclampsia, RR (possibly reduced) ([1]; meta-analysis of 70 RCTs): 0.84
- reduction of depression, SMD ([1]; meta-analysis of eight studies, 638 women with perinatal depression, 1-6 g/day): 0.65
- prevention of perinatal depression ([1]; meta-analysis of prophylactic supplementation studies): did not demonstrate a significant benefit
- HOMA-IR, std. MD [1, 9]: −0.52
- fasting plasma glucose, std. MD [1, 9]: −0.56
- high-sensitivity CRP, std. MD [1, 9]: −1.14
- neonatal care admissions, RR (possibly fewer) ([2]; meta-analysis of 70 RCTs): 0.92
- perinatal death, RR (possibly reduced) ([2]; meta-analysis of 70 RCTs): 0.75
- macrosomia, RR (possible) [2, 9]: 0.48
- newborns' hyperbilirubinemia, RR (possible) [2, 9]: 0.46
- prolonged gestation (>42 weeks), RR ([2]; meta-analysis, 6 RCTs, 5141 participants): 1.61
- early preterm birth (<34 weeks), RR ([2]; meta-analysis, 9 RCTs, 5204 participants): 0.58
- low birth weight, RR ([2]; meta-analysis, 15 trials, 8449 participants): 0.90
- preterm birth (<37 weeks), RR ([2]; meta-analysis, 26 RCTs, 10,304 participants): 0.89
- mean increase in length of gestation ([2]; meta-analysis, 41 trials, 12,517 participants): 1.67 days

Compound: [Cr] [Chromium]
- fasting plasma glucose and insulin levels ([1]; 4 i.g/kg, 24 women with gestational diabetes, U.S.): significantly improved their fasting plasma glucose and insulin levels
- pregnancy rate ([4]; 200 i.g for eight weeks, non-pregnant women with polycystic ovary syndrome (vs. 3%)): 17%
- atypical depression ([4]; 400-600 i.g/day): helpful for atypical depression
- adverse events [4, 10]: no difference in the adverse events between chromium and placebo
- glycemic control and lipids [4, 10]: improved glycemic control, reduced triglycerides, and increased HDL-C

Compound: O=S(=O)([O-])[O-].[Mg+2] [magnesium sulfate, reference compound]
- maternal complications ([1]; 4-6 g intravenously): no major complications
- reduction of risk of cerebral palsy ([2]; 4-6 g intravenously, mothers at high risk of preterm birth, meta-analysis of five studies): approximately 32%

Compound: [Mg] [Magnesium]
- tolerability (supplementation studies, 184-500 mg/day): well-tolerated
- rate of pregnancy-induced hypertension ([1]; Angola and China studies combined, 201 participants (vs. 21% placebo)): 4%
- rate of edema ([1]; Angola study (vs. 58%)): 24%
- perinatal and maternal composite outcome ([2]; 300 mg/day of elemental magnesium, Brazil): did not find any effect on perinatal composite outcome
- preterm birth, RR ([2]; metanalysis of six RCT's, 3068 pregnant women): 0.58
- magnesium blood levels ([3]; 345 mg/day): enough to keep magnesium levels stable

Compound: O=S(=O)([O-])[O-].[Zn+2] [zinc sulfate]
- infant birth weight and head circumference ([2]; 25 mg/day, women with relatively low plasma zinc): greater infant birth weights and head circumferences
- decrease of serum zinc, week 17 to week 31-36 ([3]; 20 mg, 138 Hispanic teenagers (14% non-supplemented)): 8%
- decrease of plasma zinc from beginning to end of pregnancy ([3]; 25 mg/day, U.S. women with low initial plasma zinc (11% un-supplemented)): 7%
- zinc levels ([3]; averaging 11 mg/day, U.S.): little effect on plasma levels but did increase hair and possibly saliva levels

Compound: Vitamin K
- risk of childhood cancer ([2]; meta-analysis of 6 studies, infantile supplementation): no risk of childhood cancer
- brain bleeding, RR (non-significant) [2, 11]: 0.76
- severe brain bleeding, RR [2, 11]: 0.58
- vitamin K level in the infant vs un-supplemented controls, times higher [3, 12]: 2
- vitamin K level in the mother vs un-supplemented controls, times higher [3, 12]: 100
- vitamin K level ([3]; pregnant women with previous bariatric surgery, 10 mg per week): normal or above-normal level of vitamin K

Compound: [Mn+2] [Manganese]
- Tolerable Upper Limit for Pregnant Women (Table 18): 11 mg
- risk of ASD, OR [5]: 1.84

Compound: chromium picolinate
- comparison of chromium forms [4, 10]: the form with the greatest effects on glucose and triglyceride levels

Compound: Vitamin E
- risk of congenital heart defects, times higher [6]: 5-9
- Tolerable Upper Limit for Pregnant Women (Table 12): 1000 mg
- risk of placental abruption, RR ([1]; Cochrane, alpha-tocopherol 200-800 IU with other supplements, 7 trials, 14,922 participants): 0.64
- rate of preterm births ([2]; about 450 mg/day (about 675 IU/day), non-randomized (vs. 9.3%)): 6.6%
- rate of preterm births in women with preeclampsia ([2]; approximately 200-600 mg/day (vs. 10.4% unsupplemented)): 8.6%
- increase of vitamin E levels by third trimester ([3]; 30 IU, US): 50%

Compound: O=C1O[C@H]([C@@H](O)CO)C(O)=C1O [Vitamin C]
- Tolerable Upper Limit for Pregnant Women (Table 12): 2000 mg
- risk of term PROM, RR ([1]; Cochrane meta-analysis, vitamin C alone, 170 participants): 0.55
- risk of preterm PROM, RR ([1]; Cochrane meta-analysis, vitamin C alone, 1282 participants, five studies): 0.66
- rate of urinary tract infections during pregnancy ([1]; Mexico, 100 mg/day (vs. 29%)): 13%
- hospitalization during pregnancy ([1]; Uganda, 400 mg (vs. 28% for placebo (so in the source))): 42%
- infant pulmonary function and wheezing ([2]; 500 mg/day): improved infant pulmonary function and significantly decreased wheezing through age 1 year
- maintenance of vitamin C concentrations ([3]; 100 mg supplementation): enough to maintain a constant leukocyte concentration (storage) of vitamin C, but not enough to maintain plasma concentrations
- plasma level as % of level at 2500 mg ([3]; steady-state 100 mg/day): approximately 79%
- plasma level as % of level at 2500 mg ([3]; steady-state 200 mg/day): ~88%
- plasma level as % of level at 2500 mg ([3]; steady-state 400 mg/day): ~95%
- plasma level as % of level at 2500 mg ([3]; steady-state 1000 mg/day): ~97%

Compound: O[C@H]1[C@H](O)[C@@H](O)[C@H](O)[C@@H](O)[C@H]1O [Inositol, Myo-inositol]
- side effects (high doses up to 18 grams per day): Only some mild diarrhea
- side effects (less than 6 grams per day): zero side effects
- gestational diabetes ([1]; 2000 mg/day, 223 overweight, non-obese pregnant women): significant decrease in gestational diabetes compared to placebo
- gestational diabetes ([1]; 4000 mg/day, women at risk of gestational diabetes (vs. 25%)): 11%
- gestational diabetes ([1]; 4 grams per day, at risk women): greatly reduced gestational diabetes (GD)
- macrosomia ([2]; 4000 mg/day, women at risk of gestational diabetes (vs 5.3%)): 2.1%
- preterm birth ([2]; 4000 mg/day, women at risk of gestational diabetes (vs. 7.6%)): 3.4%
- large for gestational age ([2]; 4000 mg/day, women at risk of gestational diabetes (vs. 8.9%)): 4.8%

Compound: C=C1CCC(O)CC1=CC=C1CCCC2(C)C1CCC2C(C)CCCC(C)C (stereo not drawn) [Vitamin D]
- Tolerable Upper Limit for Pregnant Women (Table 12): 4000 IU
- reduction of risk of preeclampsia ([1]; 400-600 IU/day during pregnancy, after confounder adjustment): 29%
- rate of maternal secondary hyperparathyroidism ([1]; 800 IU/day (from 27%)): 10%
- asthma/recurrent wheeze at 0-3 yrs, adjusted OR ([2]; combined analysis of two studies, 2400 IU/day and 4000 IU/day): 0.74
- blood levels of vitamin D ([3]; 2000-4000 IU/day): higher blood levels than just 400 IU/day

Compound: Nc1nc2ncc(CNc3ccc(C(=O)N[C@@H](CCC(=O)O)C(=O)O)cc3)nc2c(=O)[nH]1 [folic acid]
- prevalence of gestational diabetes ([1]; women with PCOS, folic acid only 1.5 mg): 54%
- risk of ASD in the child, RR ([2]; meta-analysis of 6 prospective studies, maternal supplementation): 0.64
- NTDs, OR ([2]; meta-analysis, multi-vitamin supplement containing folic acid): 0.67
- average blood folate level ([3]; 1000 mcg/day, each trimester, 563 US women (10 ng/ml in controls)): 25 to 26 ng/mL

Compound: Cc1ncc(CO)c(CO)c1O [Vitamin B6, Pyridoxine]
- Tolerable Upper Limit for Pregnant Women (Table 12): 100 mg
- dental decay during pregnancy ([1]; 20 mg/day): significantly reduced the rate of dental decay during pregnancy
- symptoms of nausea ([1]; 25 mg every 8 hours for 3 days): decrease symptoms of nausea
- effect on birth weight ([2]; 2 mg): sufficient to improve birth weight
